Laboratory results as given in publication PMC4537050, “A long pentraxin-3-derived pentapeptide for the therapy of FGF8b-driven steroid hormone-regulated cancers” (Oncotarget, 2015).

Tests used:
FGF10 = target: T1, FGF10 (Homo sapiens, UniProt O15520); test: SPR analysis of FGF/ARPCA interaction, FGF10; format: binding; settings: immobilized FGF10
T1 sequence (O15520 38-208): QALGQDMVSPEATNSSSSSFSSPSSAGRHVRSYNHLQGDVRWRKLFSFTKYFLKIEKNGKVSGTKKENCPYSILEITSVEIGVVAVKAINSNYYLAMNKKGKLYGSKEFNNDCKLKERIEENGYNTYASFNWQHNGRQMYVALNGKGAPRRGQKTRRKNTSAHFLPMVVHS

S115 cells = test: S115 cell proliferation assay; format: cell-based, mouse; settings: 30 ng/ml FGF8b or 10 nM DHT, 48 h, viable cell counting
Description: HUVECs were seeded at 18000 cells/cm^2 in medium containing 2.5% FBS and stimulated with 30 ng/ml FGF8b in the absence or presence of increasing concentrations of ARPCA or ARPVA. S115 cells were seeded at 15000 cells/cm^2 in medium containing 4% hormone-deprived dextran-coated charcoal-stripped heat inactivated FBS, followed by 24 h serum starvation in 1:1 mixture of serum-free Ham's F12 and DMEM. Cells were stimulated for 48 h with 30 ng/ml FGF8b or 10 nM DHT in the presence or absence of different concentrations of ARPCA or ARPVA (as specified in the corresponding figures). Viable cell counts were obtained by the counting function of the MACSQuant® Analyzer (Miltenyi Biotec, Bergisch-Gladbach, Germany, EU).

[1] = tested on: FGFR1 phosphorylation in HUVECs; test: FGFR1 phosphorylation in FGF8b-stimulated HUVECs (immunofluorescence); format: cell-based, human; settings: 30 ng/ml FGF8b, 60 μM peptide
Description: HUVECs were seeded in Ibidi® μ-Slide 8 wells (Ibidi, Martinsried, Germany, EU) at a density of 30000 cells/cm^2, starved in 2.5% FBS for 24 h and stimulated for 20 minutes with 30 ng/ml of FGF8b in the absence or presence of ARPCA or ARPVA. Following stimulation, cells were washed twice in PBS, fixed in cold acetone for 5 minutes and permeabilized with 0.2% Triton-X100 in PBS for 2 minutes at room temperature (RT). After washing in PBS, cells were blocked for 10 minutes at RT in 1% BSA and then incubated with rabbit anti-pFGFR1 or rabbit anti-FGFR1 antibodies (Santa Cruz Biotechnology) for 1 h at RT. After washing in PBS, cells were incubated with AlexaFluor 594-conjugated anti-rabbit antibody (Invitrogen) and DAPI for 30 minutes at RT. Finally, cells were examined under a Zeiss Fluorescence Axiovert 200M microscope (Carl Zeiss).

S115 tumor grafts = test: Murine s.c. alginate implant assay, S115 cells; format: in vivo, athymic Nu/Nu male mice; settings: i.p. 100 mg/kg every other day, plugs harvested day 14, compared to ARPVA-treated animals
Description: (§1) Eightweek-old athymic Nu/Nu or C57BL/6 male mice were injected s.c. with 450 μl of 3% (w/v) sodium alginate solution (alginic acid dissolved in LPS-free PBS) containing 5×10^6 S115 or 8×10^6 TRAMP-C2 cells, respectively. Mice were treated i.p. with ARPCA or ARPVA (100 mg/kg) on day 7, 9, 11 and 13 after implant. On day 14, alginate gels were harvested, weighted, embedded in OCT-compound and immediately frozen to be processed for histological analysis. For immunofluorescence stainings, sections (5 μm thick) were obtained with a cryostat microtome, air dried and fixed with acetone (for 5 min at 4°C). After blocking with 1% BSA (Bovine Serum Albumin) in PBS for 10 minutes, sections were incubated with primary antibodies, rabbit anti-FGFR1 (Santa Cruz Biotechnology), rabbit anti-phospho FGFR1 (Santa Cruz Biotechnology), Ki67 (Dako, Milano, Italy, EU) or CD31 (BD Biosciences Pharmingen, San Diego, CA, USA). After washing with PBS containing 0.05% Tween 20, sections were incubated with the appropriate Alexa Fluor 488 or Alexa Fluor 594-conjugated secondary antibody (Invitrogen). After mounting in a drop of anti-bleaching mounting medium containing DAPI (Vectashield, Vector Laboratories, Burlingame, CA, USA), sections were examined under a Zeiss Fluorescence Axiovert 200M microscope (Carl Zeiss).

[2] = tested on: FGFR1 phosphorylation and ERK1/2 activation in S115 cells; test: Western blot of FGF8b-treated S115 cells; format: cell-based, mouse; settings: 30 ng/ml FGF8b, 100 μM peptide, 20 minutes
Description: S115 cells were treated with FGF8b (30ng/ml) in the presence or absence of ARPCA (100 μM) or ARPVA (100 μM). After 20 minutes of incubation cell samples were washed in cold PBS and homogenized in RIPA buffer containing 1% Triton-X100, 0.2% BriJ, 1 mM sodium orthovanadate and protease inhibitors cocktail. Protein concentrations were determined using the Bradford protein assay (Bio-Rad Laboratories, Milano, Italy). Blotting analysis was performed using anti-FGFR1, anti-phospho FGFR1 and anti-phosphoERK1/2 antibodies (Santa Cruz Biotechnology, Santa Cruz, CA, USA). Equal loading of the lanes was confirmed by immunoblotting with anti–αTubulin (Sigma-Aldrich) antibody.

FGF23 = target: T2, FGF23 (Homo sapiens, UniProt Q9GZV9); test: SPR analysis of ARPCA on immobilized FGF23; format: binding; settings: data not shown
T2 sequence (Q9GZV9 25-251): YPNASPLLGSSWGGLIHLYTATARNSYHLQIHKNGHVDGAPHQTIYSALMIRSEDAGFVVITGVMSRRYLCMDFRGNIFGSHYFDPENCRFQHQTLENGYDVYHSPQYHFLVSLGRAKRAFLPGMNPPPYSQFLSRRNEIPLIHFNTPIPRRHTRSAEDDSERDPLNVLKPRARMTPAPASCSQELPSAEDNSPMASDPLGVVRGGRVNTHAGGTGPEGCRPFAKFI

[3] = tested on: S115 cells grafted onto the chick embryo CAM; test: CAM assay with DHT-treated S115 cell grafts; format: in vivo; settings: 2.5 × 10^4 cells/embryo; ARPCA 80 or 140 pmoles/embryo, ARPVA 140 pmoles/embryo; day 14
Description: (§2) Alginate plugs containing vehicle, FGF8b (4.5 pmoles/embryo), VEGF-A (4.5 pmoles/embryo) or S115 cells (2.5×10^4/embryo) in the absence or presence of ARPCA (80 or 140 pmoles/embryo) or ARPVA (140 pmoles/embryo) were placed on the CAM of fertilized white leghorn chicken eggs at day 11 of incubation. At day 14, newly formed blood microvessels converging toward the implant were counted by two observers in a double-blind fashion at 5x magnification under a stereomicroscope (STEMI-SR, x2/0.12; Zeiss) as described.

TRAMP-C2 alginate plugs = test: Murine s.c. alginate implant assay, TRAMP-C2 cells; format: in vivo, C57BL/6 male mice; settings: i.p. at 100 mg/kg every other day
Description: as §1

[4] = tested on: chick embryo chorioallantoic membrane (CAM); test: Chick embryo CAM assay with growth factor alginate implants; format: in vivo; settings: vessels counted at day 14
Description: as §2

Ac-ARPCA-NH2 [ARPCA, Ac-ARPCA-NH2]
Kd, FGF10 (FGF10): n.b. | mitogenic response of S115 cells to FGF8b or DHT (S115 cells): impairs the mitogenic response | FGFR1 phosphorylation triggered by FGF8b in HUVECs [1]: efficiently impairs FGFR1 phosphorylation | CD31+ neovascularization in S115 tumor grafts (S115 tumor grafts): efficiently inhibited | FGFR1 phosphorylation in S115 tumor grafts (S115 tumor grafts): efficiently inhibited | Ki67+ proliferation index in S115 tumor grafts (S115 tumor grafts): efficiently inhibited | FGFR1 phosphorylation in S115 cells treated with FGF8b [2]: inhibits FGFR1 phosphorylation | MAPK ERK1/2 activation in S115 cells treated with FGF8b [2]: inhibits | interaction with immobilized FGF23 (FGF23): did not show any interaction | neovascular response elicited by DHT-pretreated S115 cells on the CAM [3]: abolished | CD31-positive tumor vascularization in TRAMP-C2 alginate plugs (TRAMP-C2 alginate plugs): decrease | FGFR1 activation in TRAMP-C2 alginate plugs (TRAMP-C2 alginate plugs): impaired FGFR1 activation | tumor cell proliferation rate (Ki67 immunostaining) in TRAMP-C2 alginate plugs (TRAMP-C2 alginate plugs): decrease | angiogenic response elicited by FGF8b in the CAM ([4]; 4.5 pmoles FGF8b/plug, ARPCA 80 or 140 pmoles, ARPVA 140 pmoles): significantly reduced | angiogenic response elicited by VEGF-A in the CAM ([4]; 4.5 pmoles VEGF-A/plug): No inhibitory effect
